Test results reported in US20220241311A1, “METHODS AND MATERIALS FOR TREATING GLYCOSYLATION DISORDERS” (priority 2018, published 2022).

Tested on: PGM1-defective patient fibroblasts
Assay: Nucleotide sugar analysis (UPLC-PDA), patient fibroblasts
Assay type: cell-based, human
Protocol: Levels of nucleotides and sugar-nucleotides were determined. Fibroblast cell pellets (5×10^6 cells per sample) were lysed and extracted in 0.37 ml ice-cold 0.5 M perchloric acid with sonication on ice. Samples were neutralized with 86 μl ice-cold neutralization solution (2.5 M KOH in 1.5 M K2HPO4) after 5 minute sonication. To remove precipitated potassium perchlorate neutralized samples were centrifuged at 4° C. and 16,400×g for 10 minutes and filtered with 0.2 μm filters. Nucleotides and sugar-nucleotides were immediately analyzed and separated via ion-pair reverse phased chromatography using an Acquity HSS T3 column (150 mm×2.1 mm, 1.7 μm, Waters) connected to an Acquity H-class UPLC system. The column temperature was set to 40° C. and the column was equilibrated with solvent A (50 mM potassium phosphate buffer, 8 mM tetrabutylammonium hydrogensulfate, pH 6.5) at a flow rate of 0.45 ml min^−1. Autosampler temperature was maintained at 6° C. […] Nucleotides were detected by Acquity PDA detector (Waters, 260 nm) and quantified using ultrapure standards (Sigma). Data acquisition and processing was performed with the Empower3 software suite (Waters).
Nucleotide sugars were measured with serum starvation during 18 hours of culturing and without of serum starvation and applying normal media.

[1] = Patient 8, 1 d + 0.75 mM Galactose
[2] = Patient 8, 4 d + 0.75 mM Galactose
[3] = listed as 'i e' (patient cell-line 2013Y), 1 d 2 mM Galactose
[4] = listed as 'i e' (patient cell-line 2013Y), 1 d + 0.75 mM Galactose
[5] = listed as 'i e' (patient cell-line 2013Y), 4 d 2 mM Galactose
[6] = listed as 'i e' (patient cell-line 2013Y), 4 d + 0.75 mM Galactose

O=C[C@H](O)[C@@H](O)[C@@H](O)[C@H](O)CO [D-gal, D-galactose]
ADP (Patient 8, 1 d 2 mM Galactose): 510.69 pmol/mio cells | AMP (Patient 8, 1 d 2 mM Galactose): 15.28 pmol/mio cells | ATP (Patient 8, 1 d 2 mM Galactose): 2089.09 pmol/mio cells | CTP (Patient 8, 1 d 2 mM Galactose): 274.92 pmol/mio cells | GDP (Patient 8, 1 d 2 mM Galactose): 213.67 pmol/mio cells | GDP-Man (Patient 8, 1 d 2 mM Galactose): 29.66 pmol/mio cells | GTP (Patient 8, 1 d 2 mM Galactose): 434.86 pmol/mio cells | UDP (Patient 8, 1 d 2 mM Galactose): 153.67 pmol/mio cells | UDP-Gal (Patient 8, 1 d 2 mM Galactose): 398.68 pmol/mio cells | UDP-Glc (Patient 8, 1 d 2 mM Galactose): 613.75 pmol/mio cells | UDP-GlcNAc (Patient 8, 1 d 2 mM Galactose): 31.04 pmol/mio cells | UTP (Patient 8, 1 d 2 mM Galactose): 1183.32 pmol/mio cells | cAMP (Patient 8, 1 d 2 mM Galactose): 75.29 pmol/mio cells | ADP [1]: 429.27 pmol/mio cells | AMP [1]: 7.31 pmol/mio cells | ATP [1]: 1855.71 pmol/mio cells | CTP [1]: 222.68 pmol/mio cells | GDP [1]: 188.04 pmol/mio cells | GDP-Man [1]: 31.71 pmol/mio cells | GTP [1]: 387.39 pmol/mio cells | UDP [1]: 120.53 pmol/mio cells | UDP-Gal [1]: 273.66 pmol/mio cells | UDP-Glc [1]: 445.76 pmol/mio cells | UDP-GlcNAc [1]: 40.27 pmol/mio cells | UTP [1]: 1037.93 pmol/mio cells | cAMP [1]: 72.84 pmol/mio cells | ADP (Patient 8, 4 d 2 mM Galactose): 695.56 pmol/mio cells | AMP (Patient 8, 4 d 2 mM Galactose): 22.78 pmol/mio cells | ATP (Patient 8, 4 d 2 mM Galactose): 3192.45 pmol/mio cells | CTP (Patient 8, 4 d 2 mM Galactose): 282.74 pmol/mio cells | GDP (Patient 8, 4 d 2 mM Galactose): 260.45 pmol/mio cells | GDP-Man (Patient 8, 4 d 2 mM Galactose): 95.43 pmol/mio cells | GTP (Patient 8, 4 d 2 mM Galactose): 659.21 pmol/mio cells | UDP (Patient 8, 4 d 2 mM Galactose): 169.63 pmol/mio cells | UDP-Gal (Patient 8, 4 d 2 mM Galactose): 315.21 pmol/mio cells | UDP-Glc (Patient 8, 4 d 2 mM Galactose): 493.54 pmol/mio cells | UDP-GlcNAc (Patient 8, 4 d 2 mM Galactose): 56.13 pmol/mio cells | UTP (Patient 8, 4 d 2 mM Galactose): 1293.27 pmol/mio cells | cAMP (Patient 8, 4 d 2 mM Galactose): 88.40 pmol/mio cells | ADP [2]: 655.53 pmol/mio cells | AMP [2]: 18.87 pmol/mio cells | ATP [2]: 3363.84 pmol/mio cells | CTP [2]: 274.92 pmol/mio cells | GDP [2]: 277.54 pmol/mio cells | GDP-Man [2]: 101.37 pmol/mio cells | GTP [2]: 682.40 pmol/mio cells | UDP [2]: 174.89 pmol/mio cells | UDP-Gal [2]: 283.69 pmol/mio cells | UDP-Glc [2]: 442.43 pmol/mio cells | UDP-GlcNAc [2]: 6.33 pmol/mio cells | UTP [2]: 1364.91 pmol/mio cells | cAMP [2]: 74.47 pmol/mio cells | UDP-Glc and UDP-Gal levels (all patient cell lines, 4 days of D-gal supplementation): remained significantly increased | ADP [3]: 318.92 pmol/mio cells | AMP [3]: 2.63 pmol/mio cells | ATP [3]: 2918.66 pmol/mio cells | CTP [3]: 295.58 pmol/mio cells | GDP [3]: 186.06 pmol/mio cells | GDP-Man [3]: 56.30 pmol/mio cells | GTP [3]: 566.56 pmol/mio cells | UDP [3]: 42.70 pmol/mio cells | UDP-Gal [3]: 503.56 pmol/mio cells | UDP-Glc [3]: 637.55 pmol/mio cells | UDP-GlcNAc [3]: 211.57 pmol/mio cells | UTP [3]: 981.09 pmol/mio cells | cAMP [3]: 70.73 pmol/mio cells | ADP [4]: 407.13 pmol/mio cells | AMP [4]: 8.23 pmol/mio cells | ATP [4]: 3422.01 pmol/mio cells | CTP [4]: 339.16 pmol/mio cells | GDP [4]: 187.52 pmol/mio cells | GDP-Man [4]: 107.59 pmol/mio cells | GTP [4]: 681.74 pmol/mio cells | UDP [4]: 115.84 pmol/mio cells | UDP-Gal [4]: 431.17 pmol/mio cells | UDP-Glc [4]: 703.36 pmol/mio cells | UDP-GlcNAc [4]: 21.89 pmol/mio cells | UTP [4]: 1494.83 pmol/mio cells | cAMP [4]: 91.16 pmol/mio cells | ADP [5]: 382.44 pmol/mio cells | AMP [5]: 16.17 pmol/mio cells | ATP [5]: 3460.76 pmol/mio cells | CTP [5]: 241.06 pmol/mio cells | GDP [5]: 242.68 pmol/mio cells | GDP-Man [5]: 147.29 pmol/mio cells | GTP [5]: 681.71 pmol/mio cells | UDP [5]: 43.26 pmol/mio cells | UDP-Gal [5]: 394.31 pmol/mio cells | UDP-Glc [5]: 616.89 pmol/mio cells | UTP [5]: 1316.26 pmol/mio cells | cAMP [5]: 98.61 pmol/mio cells | ADP [6]: 349.53 pmol/mio cells | AMP [6]: 3.85 pmol/mio cells | ATP [6]: 3484.52 pmol/mio cells | CTP [6]: 280.34 pmol/mio cells | GDP [6]: 225.14 pmol/mio cells | GDP-Man [6]: 151.18 pmol/mio cells | GTP [6]: 686.35 pmol/mio cells | UDP [6]: 39.53 pmol/mio cells | UDP-Gal [6]: 290.54 pmol/mio cells | UDP-Glc [6]: 487.94 pmol/mio cells | UDP-GlcNAc [6]: 354.84 pmol/mio cells | UTP [6]: 944.20 pmol/mio cells | cAMP [6]: 68.63 pmol/mio cells
